Test results: US20130261077A1 (priority 2012, published 2013)

Biological target: T1, FimH-CRD (Escherichia coli, UniProt P08191)
T1 construct: The first 177 amino acids of the FimH protein; thrombin tag (printed as 'fusion protein with thrombin') (cleaved yes); made in house; host or cells: bacteria (pET21b plasmid)
Assay: Competitive binding assay by fluorescence polarization, assay 2 (compounds prepared by robotics, plates frozen and thawed)
Outline: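 Compounds at 0.4 nM–75 μM final (12 points, 3-fold steps, duplicate) compete with a 5 nM Alexa 647 mannoside probe for 60 nM FimH-CRD; 5 h room-temperature incubation in pH 7.0 Tris buffer with 2.5% DMSO, FP read-out, Kd from fitted curves. Assay 1 uses manual dilution, assay 2 robot-made frozen/thawed plates.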

T1 sequence (P08191 22-177): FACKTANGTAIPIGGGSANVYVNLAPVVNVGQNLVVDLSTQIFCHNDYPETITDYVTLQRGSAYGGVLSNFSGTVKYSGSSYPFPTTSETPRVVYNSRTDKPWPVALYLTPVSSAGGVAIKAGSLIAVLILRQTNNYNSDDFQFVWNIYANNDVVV

Compound | Kd [nM]
CNC(=O)c1ccc(Oc2cc([C@H]3O[C@H](CO)[C@@H](O)[C@H](O)[C@@H]3O)ccc2F)cc1 [Compound 197, 4-[2-fluoro-5-[(2R,3S,4R,5S,6R)-3,4,5-trihydroxy-6-(hydroxymethyl)tetrahydropyran-2-yl]phenoxy]-N-methyl-benzamide] | 11.7 ± 2.8
CNC(=O)c1ccc(Oc2cccc([C@H]3O[C@H](CO)[C@@H](O)[C@H](O)[C@@H]3O)c2F)cc1 [Compound 198, 4-[2-fluoro-3-[(2R,3S,4R,5S,6R)-3,4,5-trihydroxy-6-(hydroxymethyl)tetrahydropyran-2-yl]phenoxy]-N-methyl-benzamide] | 10.8 ± 5.2
CNC(=O)c1ccc(Oc2cc(C)cc([C@H]3O[C@H](CO)[C@@H](O)[C@H](O)[C@@H]3O)c2)cc1 [Compound 199, N-methyl-4-[3-methyl-5-[(2R,3S,4R,5S,6R)-3,4,5-trihydroxy-6-(hydroxymethyl)tetrahydropyran-2-yl]phenoxy]benzamide] | 8.3 ± 2.2
CNC(=O)c1cccc(Oc2cccc([C@H]3O[C@H](CO)[C@@H](O)[C@H](O)[C@@H]3O)c2F)c1 [Compound 200, 3-[2-fluoro-3-[(2R,3S,4R,5S,6R)-3,4,5-trihydroxy-6-(hydroxymethyl)tetrahydropyran-2-yl]phenoxy]-N-methyl-benzamide] | 8.4 ± 0.8
CNC(=O)c1cccc(Oc2ccc(OC(F)(F)F)c([C@H]3O[C@H](CO)[C@@H](O)[C@H](O)[C@@H]3O)c2)c1 [Compound 201, N-methyl-3-[4-(trifluoromethoxy)-3-[(2R,3S,4R,5S,6R)-3,4,5-trihydroxy-6-(hydroxymethyl)tetrahydropyran-2-yl]phenoxy]benzamide] | 103 ± 1.8
CNC(=O)c1cccc(Oc2ccc(F)c([C@H]3O[C@H](CO)[C@@H](O)[C@H](O)[C@@H]3O)c2)c1 [Compound 202, 3-[4-fluoro-3-[(2R,3S,4R,5S,6R)-3,4,5-trihydroxy-6-(hydroxymethyl)tetrahydropyran-2-yl]phenoxy]-N-methyl-benzamide] | 19.2 ± 3.8
CNC(=O)c1cccc(Oc2cc([C@H]3O[C@H](CO)[C@@H](O)[C@H](O)[C@@H]3O)ccc2F)c1 [Compound 203, 3-[2-fluoro-5-[(2R,3S,4R,5S,6R)-3,4,5-trihydroxy-6-(hydroxymethyl)tetrahydropyran-2-yl]phenoxy]-N-methyl-benzamide] | 9.2 ± 1.2
CNC(=O)c1cccc(Oc2cc(C)cc([C@H]3O[C@H](CO)[C@@H](O)[C@H](O)[C@@H]3O)c2)c1 [Compound 204, N-methyl-3-[3-methyl-5-[(2R,3S,4R,5S,6R)-3,4,5-trihydroxy-6-(hydroxymethyl)tetrahydropyran-2-yl]phenoxy]benzamide] | 10.6 ± 0.9
OC[C@H]1O[C@H](c2ccc(Oc3ccccc3)cc2)[C@@H](O)[C@@H](O)[C@@H]1O [Compound 205, (2R,3S,4R,5S,6R)-2-(hydroxymethyl)-6-(4-phenoxyphenyl)tetrahydropyran-3,4,5-triol] | 38.7 ± 16.2
OC[C@H]1O[C@H](c2cccc(OCCF)c2)[C@@H](O)[C@@H](O)[C@@H]1O [Compound 206, (2R,3S,4R,5S,6R)-2-[3-(2-fluoroethoxy)phenyl]-6-(hydroxymethyl)tetrahydropyran-3,4,5-triol] | 28.4 ± 6.2
CCC(C)COc1cccc(C2O[C@H](CO)[C@@H](O)[C@H](O)[C@@H]2O)c1 (stereo partly shown) [Compound 207] | 9.4 ± 4.3
OC[C@H]1OC(c2cccc(OCCCCC(F)(F)F)c2)[C@@H](O)[C@@H](O)[C@@H]1O (stereo partly shown) [Compound 209] | 12.5 ± 5.3
OC[C@H]1OC(c2cccc(OCC3CCO3)c2)[C@@H](O)[C@@H](O)[C@@H]1O (stereo partly shown) [Compound 210] | 24.2 ± 1.3
COC(=O)c1ccc(COc2cccc(C3O[C@H](CO)[C@@H](O)[C@H](O)[C@@H]3O)c2)cc1 (stereo partly shown) [Compound 211] | 8 ± 2.4
CNC(=O)COc1cccc(C2O[C@H](CO)[C@@H](O)[C@H](O)[C@@H]2O)c1 (stereo partly shown) [Compound 212] | 18.9 ± 0.8
OC[C@H]1OC(c2cccc(OCc3ccc(-n4cncn4)cc3)c2)[C@@H](O)[C@@H](O)[C@@H]1O (stereo partly shown) [Compound 213] | 9.3 ± 0.5
CC1(COc2cccc(C3O[C@H](CO)[C@@H](O)[C@H](O)[C@@H]3O)c2)COC1 (stereo partly shown) [Compound 214] | 12 ± 7.9
OC[C@H]1OC(c2cccc(OCC3CCCCC3)c2)[C@@H](O)[C@@H](O)[C@@H]1O (stereo partly shown) [Compound 215] | 13.1 ± 3.9
OC[C@H]1OC(c2cccc(OCCC3CCCCC3)c2)[C@@H](O)[C@@H](O)[C@@H]1O (stereo partly shown) [Compound 216] | 16.4 ± 5.2
OC[C@H]1OC(c2cccc(OCCCc3ccccc3)c2)[C@@H](O)[C@@H](O)[C@@H]1O (stereo partly shown) [Compound 217] | 12.1 ± 7.6
O=C(COc1cccc(C2O[C@H](CO)[C@@H](O)[C@H](O)[C@@H]2O)c1)C1CCCCC1 (stereo partly shown) [Compound 218] | 8.7 ± 1.4
O=C(NCCCOc1cccc(C2O[C@H](CO)[C@@H](O)[C@H](O)[C@@H]2O)c1)c1ccccc1 (stereo partly shown) [Compound 219] | 16.3 ± 5.1
OC[C@H]1OC(c2cccc(OCc3ccccc3-c3ccccc3)c2)[C@@H](O)[C@@H](O)[C@@H]1O (stereo partly shown) [Compound 220] | 16.6 ± 4.4
Cc1nn(-c2ccccc2)nc1COc1cccc(C2O[C@H](CO)[C@@H](O)[C@H](O)[C@@H]2O)c1 (stereo partly shown) [Compound 221] | 8.2 ± 0.5
OC[C@H]1OC(c2cccc(OCc3ccccc3)c2)[C@@H](O)[C@@H](O)[C@@H]1O (stereo partly shown) [Compound 222] | 40.7 ± 1.2
COC(=O)c1cccc(COc2cccc(C3O[C@H](CO)[C@@H](O)[C@H](O)[C@@H]3O)c2)c1 (stereo partly shown) [Compound 223] | 23.2 ± 1.6
CNC(=O)c1ccc(COc2cccc(C3O[C@H](CO)[C@@H](O)[C@H](O)[C@@H]3O)c2)cc1 (stereo partly shown) [Compound 225] | 34.5 ± 12.3
OC[C@H]1OC(c2cccc(OCc3cc(Cl)cc(Cl)c3)c2)[C@@H](O)[C@@H](O)[C@@H]1O (stereo partly shown) [Compound 226] | 32.1 ± 8.9

Compound | Kd [nM]
CNC(=O)c1cccc(COc2cccc([C@H]3O[C@H](CO)[C@@H](O)[C@H](O)[C@@H]3O)c2)c1 [Compound 227, N-methyl-3-[[3-[(2R,3S,4R,5S,6R)-3,4,5-trihydroxy-6-(hydroxymethyl)tetrahydropyran-2-yl]phenoxy]methyl]benzamide] | 37.1 ± 15.4
Cc1cccc(COc2ccc(C3O[C@H](CO)[C@@H](O)[C@H](O)[C@@H]3O)cc2)n1 (stereo partly shown) [Compound 228] | 9.2 ± 0.04
CCC#CCOc1ccc(C2O[C@H](CO)[C@@H](O)[C@H](O)[C@@H]2O)cc1 (stereo partly shown) [Compound 229] | 33.1 ± 4
N#CCCCOc1ccc(C2O[C@H](CO)[C@@H](O)[C@H](O)[C@@H]2O)cc1 (stereo partly shown) [Compound 230] | 13.9 ± 3.6
CC[C@H](C)COc1ccc(C2O[C@H](CO)[C@@H](O)[C@H](O)[C@@H]2O)cc1 (stereo partly shown) [Compound 231] | 8.9 ± 1.4
CC(C)CCOc1ccc(C2O[C@H](CO)[C@@H](O)[C@H](O)[C@@H]2O)cc1 (stereo partly shown) [Compound 232] | 8.5 ± 4.2
COCCCOc1ccc(C2O[C@H](CO)[C@@H](O)[C@H](O)[C@@H]2O)cc1 (stereo partly shown) [Compound 233] | 10.3 ± 3.9
OC[C@H]1OC(c2ccc(OCCCCF)cc2)[C@@H](O)[C@@H](O)[C@@H]1O (stereo partly shown) [Compound 234] | 11.4 ± 4.5
O=C(COc1ccc(C2O[C@H](CO)[C@@H](O)[C@H](O)[C@@H]2O)cc1)C1CC1 (stereo partly shown) [Compound 235] | 14.1 ± 0.3
OC[C@H]1OC(c2ccc(OCC3CCOCC3)cc2)[C@@H](O)[C@@H](O)[C@@H]1O (stereo partly shown) [Compound 236] | 11.5 ± 4.6
OC[C@H]1OC(c2ccc(OCc3ccc(F)cc3)cc2)[C@@H](O)[C@@H](O)[C@@H]1O (stereo partly shown) [Compound 237] | 7.9 ± 1.6
OC[C@H]1OC(c2ccc(OCCc3cccc(F)c3)cc2)[C@@H](O)[C@@H](O)[C@@H]1O (stereo partly shown) [Compound 238] | 9.7
COc1ccc(CCOc2ccc(C3O[C@H](CO)[C@@H](O)[C@H](O)[C@@H]3O)cc2)cc1 (stereo partly shown) [Compound 239] | 7.7 ± 0.05
OC[C@H]1OC(c2ccc(OCc3cccc4cccnc34)cc2)[C@@H](O)[C@@H](O)[C@@H]1O (stereo partly shown) [Compound 240] | 7.6 ± 0.9
CC(C)(C)c1ccc(COc2ccc(C3O[C@H](CO)[C@@H](O)[C@H](O)[C@@H]3O)cc2)cc1 (stereo partly shown) [Compound 241] | 10.2 ± 0.8
COc1ccccc1NC(=O)COc1ccc(C2O[C@H](CO)[C@@H](O)[C@H](O)[C@@H]2O)cc1 (stereo partly shown) [Compound 242] | 21.5 ± 3.9
COC(=O)CCCOc1ccc(C2O[C@H](CO)[C@@H](O)[C@H](O)[C@@H]2O)cc1 (stereo partly shown) [Compound 243] | 5.8
OC[C@H]1OC(c2ccc(OCc3ccc4ccccc4c3)cc2)[C@@H](O)[C@@H](O)[C@@H]1O (stereo partly shown) [Compound 244] | 23.3 ± 1.1
OC[C@H]1OC(c2ccc(OCc3ccccc3)cc2)[C@@H](O)[C@@H](O)[C@@H]1O (stereo partly shown) [Compound 245] | 22.8 ± 2.4
COC(=O)c1cccc(COc2ccc(C3O[C@H](CO)[C@@H](O)[C@H](O)[C@@H]3O)cc2)c1 (stereo partly shown) [Compound 246] | 23.6 ± 5.5
O=C(O)c1cccc(COc2ccc(C3O[C@H](CO)[C@@H](O)[C@H](O)[C@@H]3O)cc2)c1 (stereo partly shown) [Compound 247] | 32 ± 5.1
CNC(=O)c1ccc(COc2ccc(C3O[C@H](CO)[C@@H](O)[C@H](O)[C@@H]3O)cc2)cc1 (stereo partly shown) [Compound 249] | 19.6 ± 10.2
OC[C@H]1OC(c2ccc(OCc3cc(Cl)cc(Cl)c3)cc2)[C@@H](O)[C@@H](O)[C@@H]1O (stereo partly shown) [Compound 250] | 40.6 ± 23.4
OC[C@H]1OC(c2ccc(OCc3cccc4nonc34)cc2)[C@@H](O)[C@@H](O)[C@@H]1O (stereo partly shown) [Compound 251] | 29.9 ± 13.9
OC[C@H]1O[C@H](c2cccc(Oc3ccncc3)c2)[C@@H](O)[C@@H](O)[C@@H]1O [Compound 252, (2R,3S,4R,5S,6R)-2-(hydroxymethyl)-6-[3-(4-pyridyloxy)phenyl]tetrahydropyran-3,4,5-triol] | 13.2 ± 2.2
OC[C@H]1O[C@H](c2cccc(Oc3nc4ccccc4s3)c2)[C@@H](O)[C@@H](O)[C@@H]1O [Compound 253, (2R,3S,4R,5S,6R)-2-[3-(1,3-benzothiazol-2-yloxy)phenyl]-6-(hydroxymethyl)tetrahydropyran-3,4,5-triol] | < 5
OC[C@H]1OC(c2cccc(Oc3ccnc4ccccc34)c2)[C@@H](O)[C@@H](O)[C@@H]1O (stereo partly shown) [Compound 254] | 7.9
